Values of other authors, collected in US8110226B2, “Drug formulations having inert sealed cores” (Mylan Pharmaceuticals Inc., priority 2007, dated 2012).

Conditions: first pKa of non-polymeric pH modifying acid

pKa: 4.14
SMILES: CC(O)C(=O)O (stereo not shown) [Lactic Acid]
